Data taken from patent US20260085067A1, “CYCLIC SULFONAMIDE RIBONUCLEOTIDE REDUCTASE (RNR) INHIBITORS AND USES THEREOF” (Boundless Bio, Inc., priority 2022, published 2026).

What was measured:
[1] = tested on: human hepatocytes; assay: Human hepatocyte stability assay; type: in vitro ADME; conditions: 0.5×10^6 viable cells/ml, time points 0.5 and 60 minutes
Method: 1. 10 mM stock solutions of test compounds and positive control were prepared in DMSO. Thawing medium and supplement incubation medium (serum-free) were placed in a 37° C. water bath for at least 15 minutes prior to use.
2. Stock solutions were diluted to 100 μM by combining 198 μL acetonitrile and 2 μL of 10 mM stock solution. Verapamil was use as positive control in the assay.
3. Vials of cryopreserved human hepatocytes were removed from storage, while ensuring that vials remain at cryogenic temperatures. The pressure was removed by loosening and re-tightening the cap. The vials were thawed in a 37° C. water bath with gentle shaking. Vials remained in the water bath until all ice crystals had dissolved and were no longer visible. Vials were sprayed with 70% ethanol before being transferred to a biosafety cabinet. Then the contents were poured into a 50 mL thawing medium conical tube. Vials were centrifuged at 100 g for 10 minutes at room temperature. Thawing medium was aspirated and hepatocytes were re-suspended with serum-free incubation medium to yield ˜1.5×10^6 cells/mL.
4. Cell viability and density were counted using Cellometer® Vision, and then cells were diluted with serum-free incubation medium to a working cell density of 0.5×10^6 viable cells/ml.
5. Aliquots of 198 μL hepatocytes were dispensed into each well of a 96-well non-coated plate. The plate was placed in the incubator on an orbital shaker at 500 rpm for approximately 10 minutes.
6. Aliquots of 2 μL of the 100 μM test compounds or verapamil were added into respective wells of the non-coated 96-well plate to start the reaction. This assay was performed in duplicate. The plate was incubated in the incubator on an orbital shaker at 500 rpm for the designed time points.
7.25 μL of contents were transferred and mixed with 5 volumes (125 μL) of cold acetonitrile with IS (100 nM alprazolam, 200 nM caffeine, 100 nM labetalol and 100 nM tolbutamide) to terminate the reaction at time points of 0.5 and 60 minutes. Samples were centrifuged for 30 minutes at 3,220 g. Then transfer 100 μL of the supernatant to new 96-well plates for analysis. Add 100 μL of distilled water to each sample and mix for analysis by LC-MS/MS.
All calculations were carried out using Microsoft Excel. Peak areas were determined from extracted ion chromatograms. The in vitro half-life (tin) of the parent compound was determined by regression analysis of the percent parent disappearance vs. time curve. • a. The in vitro half-life (in vitro tin) was determined from the slope value: in vitro t1/2=0.693/k • b. Conversion of the in vitro tin (in min) into the in vitro intrinsic clearance (in vitro CLint, in μL/min/10^6 cells) was done using the following equation: […]

[2] = target: T1, RNR (RNR1:RNR2 1:1) (Homo sapiens, UniProt P23921); assay: RNR enzyme activity, rapid-fire mass spectrometry (RF/MS) assay; type: biochemical; conditions: [RNR] 50 nM, 1:1 RNR1:RNR2; CDP 5 μM; ATP 1 mM; 37° C., 45 min; compounds screened up to 50 μM
T1 sequence (P23921 1-792): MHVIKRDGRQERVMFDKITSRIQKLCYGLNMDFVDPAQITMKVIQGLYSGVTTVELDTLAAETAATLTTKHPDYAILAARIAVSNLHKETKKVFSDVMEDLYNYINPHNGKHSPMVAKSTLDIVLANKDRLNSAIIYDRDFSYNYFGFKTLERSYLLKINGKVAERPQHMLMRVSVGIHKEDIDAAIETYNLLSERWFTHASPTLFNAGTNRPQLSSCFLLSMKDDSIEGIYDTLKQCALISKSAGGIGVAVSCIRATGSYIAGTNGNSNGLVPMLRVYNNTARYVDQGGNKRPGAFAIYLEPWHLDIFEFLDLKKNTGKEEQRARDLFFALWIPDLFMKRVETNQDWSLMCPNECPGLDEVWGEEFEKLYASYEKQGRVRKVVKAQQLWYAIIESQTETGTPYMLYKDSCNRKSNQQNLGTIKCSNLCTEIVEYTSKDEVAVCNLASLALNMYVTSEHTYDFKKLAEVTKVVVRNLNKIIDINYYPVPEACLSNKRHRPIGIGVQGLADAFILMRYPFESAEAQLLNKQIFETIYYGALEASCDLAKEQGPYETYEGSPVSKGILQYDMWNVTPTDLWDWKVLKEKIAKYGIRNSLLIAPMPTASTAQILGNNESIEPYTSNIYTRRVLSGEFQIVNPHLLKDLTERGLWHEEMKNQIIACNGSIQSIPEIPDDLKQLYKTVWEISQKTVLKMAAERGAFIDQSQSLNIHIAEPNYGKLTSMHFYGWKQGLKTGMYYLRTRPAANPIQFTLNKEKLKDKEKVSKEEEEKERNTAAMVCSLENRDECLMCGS
How it was run: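 Human RNR (50 nM final, RNR1:RNR2 1:1) pre-incubated 15 min at room temperature, then reacted 45 min at 37 °C with 5 μM CDP and 1 mM ATP, no NADPH. Reaction quenched with 6% HCOOH; product quantified by rapid-fire mass spectrometry.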

[3] = tested on: pCHK1 (S345) in Colo320 DM cells; assay: Alphalisa assay, detection of pCHK1 (S345) in Colo320 DM cells; type: cell-based, human; conditions: Homo sapiens, COLO 320DM, compound overnight (approximately 16 hours)
How it was run: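 Colo320 DM cells plated overnight, then exposed to compound for about 16 h at 37 °C (DMSO <0.5%). Cells lysed and phospho-CHK1 (S345) quantified by AlphaLisa SureFire with sequential 60 min acceptor and donor incubations at room temperature.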

SMILES	IC50 [2] [nM]	IC50 [3] [nM]	Clhep [1]
Cc1ccc(F)c([C@@H](C)[C@@H](c2n[nH]c(=O)o2)N2CNc3cc(Cl)ccc3S2(=O)=O)c1C [Example 8, 5-((1S,2R)-1-(6-chloro-1,1-dioxido-3,4-dihydro-2H-benzo[e][1,2,4]thiadiazin-2-yl)-2-(6-fluoro-2,3-dimethylphenyl)propyl)-1,3,4-oxadiazol-2 (3H)-one]	20 to 100	≤ 1000	B (10 ml/min/kg < Clhep ≤ 20 ml/min/kg)
CC(=O)c1cc(Cl)cc2c1S(=O)(=O)N([C@H](c1n[nH]c(=O)o1)[C@H](C)c1c(F)ccc(C)c1C)CCO2 [Example 60, 5-((1S,2R)-1-(9-acetyl-7-chloro-1,1-dioxido-3,4-dihydro-2H-benzo[b][1,4,5]oxathiazepin-2-yl)-2-(6-fluoro-2,3-dimethylphenyl)propyl)-1,3,4-oxadiazol-2 (3H)-one]	< 20	≤ 1000	B (10 ml/min/kg < Clhep ≤ 20 ml/min/kg)
CC(=O)c1cc(Cl)cc2c1S(=O)(=O)N([C@H](c1n[nH]c(=O)o1)[C@H](C)c1c(F)ccc(C)c1C)CN2C [Example 75, 5-((1S,2R)-1-(8-acetyl-6-chloro-4-methyl-1,1-dioxido-3,4-dihydro-2H-benzo[e][1,2,4]thiadiazin-2-yl)-2-(6-fluoro-2,3-dimethylphenyl)propyl)-1,3,4-oxadiazol-2 (3H)-one]	< 20	≤ 1000	B (10 ml/min/kg < Clhep ≤ 20 ml/min/kg)

Now from value to molecule, other results behind:

IC50 [2] [nM]	IC50 [3] [nM]	SMILES	Clhep [1]
< 20	≤ 1000	COCCCN1CN([C@H](c2n[nH]c(=O)o2)[C@H](C)c2c(F)ccc(C)c2C)S(=O)(=O)c2ccc(Cl)nc21 [Example 48, 5-((1S,2R)-1-(6-chloro-4-(3-methoxypropyl)-1,1-dioxido-3,4-dihydro-2H-pyrido[2,3-e][1,2,4]thiadiazin-2-yl)-2-(6-fluoro-2,3-dimethylphenyl)propyl)-1,3,4-oxadiazol-2 (3H)-one]	A (0 ml/min/kg ≤ Clhep ≤ 10 ml/min/kg)
< 20	≤ 1000	Cc1ccc(F)c([C@@H](C)[C@@H](c2n[nH]c(=O)o2)N2CN(CCO)c3cc(Cl)ccc3S2(=O)=O)c1C [Example 50, 5-((1S,2R)-1-(6-chloro-4-(2-hydroxyethyl)-1,1-dioxido-3,4-dihydro-2H-benzo[e][1,2,4]thiadiazin-2-yl)-2-(6-fluoro-2,3-dimethylphenyl)propyl)-1,3,4-oxadiazol-2 (3H)-one]	A (0 ml/min/kg ≤ Clhep ≤ 10 ml/min/kg)
